This note sets out measurements from article PMC2970562, “High-Affinity Inhibitors of Human NAD^+-Dependent 15-Hydroxyprostaglandin Dehydrogenase: Mechanisms of Inhibition and Structure-Activity Relationships” (PLoS ONE, 2010).

The structures appear in SMILES notation. Where two headings read alike, the source gives them in different places.

In assay [1] the target is T1, ALDH1A1 (Homo sapiens, UniProt P00352).
T1 sequence (P00352 1-501): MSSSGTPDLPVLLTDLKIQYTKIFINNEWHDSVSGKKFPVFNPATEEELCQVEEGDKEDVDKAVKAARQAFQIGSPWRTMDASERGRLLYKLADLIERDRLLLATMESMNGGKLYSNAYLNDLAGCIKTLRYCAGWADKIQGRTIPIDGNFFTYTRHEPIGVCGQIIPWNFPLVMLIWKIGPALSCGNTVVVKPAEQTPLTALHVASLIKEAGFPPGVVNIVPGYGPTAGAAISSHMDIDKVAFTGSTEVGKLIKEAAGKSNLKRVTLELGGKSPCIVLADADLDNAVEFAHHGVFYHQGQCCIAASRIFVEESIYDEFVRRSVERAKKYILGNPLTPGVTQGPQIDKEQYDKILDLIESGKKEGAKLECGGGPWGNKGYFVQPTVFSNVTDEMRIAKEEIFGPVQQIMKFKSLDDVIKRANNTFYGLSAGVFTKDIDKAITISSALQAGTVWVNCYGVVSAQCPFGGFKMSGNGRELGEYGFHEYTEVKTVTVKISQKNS
Description: Selectivity screen, aldehyde dehydrogenase 1 (PubChem Assay ID 1030). In kind it is biochemical.
Description: (§1) The list also includes two SDR enzymes, hydroxyacyl dehydrogenase (HADH2, also known as type-10 hydroxysteroid dehydrogenase, HSD17β10; PubChem Assay ID 886) and type-4 hydroxysteroid dehydrogenase (HSD17β4; PubChem Assay ID 893), and a medium-chain dehydrogenase/reductase (MDR), aldehyde dehydrogenase 1 (ALDH1A1; PubChem Assay ID 1030), each of which was tested using a similar experimental protocol to that used for 15-PGDH.

Assay [2] concerns the target T2, HADH2 (HSD17β10) (Homo sapiens, UniProt Q99714).
T2 sequence (Q99714 1-261): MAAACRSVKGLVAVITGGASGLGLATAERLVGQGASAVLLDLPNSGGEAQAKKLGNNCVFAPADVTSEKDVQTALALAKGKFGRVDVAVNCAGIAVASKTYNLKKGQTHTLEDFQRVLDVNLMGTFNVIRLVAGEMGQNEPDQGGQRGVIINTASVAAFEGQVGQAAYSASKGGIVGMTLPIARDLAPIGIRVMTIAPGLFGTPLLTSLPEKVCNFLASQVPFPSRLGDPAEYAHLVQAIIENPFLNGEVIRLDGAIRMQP
Description: Selectivity screen, hydroxyacyl dehydrogenase (PubChem Assay ID 886).
Description: as §1

Assay [3] deals with T3, human 15-PGDH (Homo sapiens, UniProt P15428).
T3 construct: comprising residues 3–256 of the human HPGD gene (GenBank identifier: 1203982); His6 (GHHHHHH, behind the TEV site) (C, cleaved yes); made in house; host or cells: E. coli BL21(DE3)-R3
T3 sequence (P15428 3-256): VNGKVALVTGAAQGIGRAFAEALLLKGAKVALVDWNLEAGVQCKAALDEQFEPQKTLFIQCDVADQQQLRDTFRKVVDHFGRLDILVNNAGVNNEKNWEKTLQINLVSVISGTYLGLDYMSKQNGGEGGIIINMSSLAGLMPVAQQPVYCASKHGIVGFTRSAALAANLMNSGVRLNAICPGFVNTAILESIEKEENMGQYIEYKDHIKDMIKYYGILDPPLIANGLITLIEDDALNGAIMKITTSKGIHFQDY
The assay can be described thus: Differential scanning fluorimetry (DSF), thermal stabilization. The conditions noted are these: for ∆Tm [°C] NAD+: with 200 µM NAD+; for ∆Tm [°C] NAD+ / ∆Tm [°C] NADH / ∆Tm [°C] apo: 1 µM protein, compound 50 or 250 µM, N/A = no unfolding transition observed in DSF; for ∆Tm [°C] NADH: with 200 µM NADH; for ∆Tm [°C] apo: without cofactor. The assay is classed as binding. On the technique in general: Differential scanning fluorimetry follows unfolding on heating by fluorescence.

Assay [4] has as its target T3, human 15-PGDH. The assay can be described thus: qHTS and 24-point re-test: fluorescence assay of NAD+ reduction to NADH on PGE2 oxidation (PubChem AID 894). The assay is classed as biochemical. The conditions noted are these: read-out: qHTS IC50. Summed up: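 NADH fluorescence (ex 340/em 450 nm) followed kinetically over a 2-min initial rate. Data normalized to no-enzyme and no-compound controls; four-parameter Hill fit.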
For orientation: qHTS replaces the single test concentration by a dilution series.

Where [5] appears, read: top concentration 57.5 µM, PubChem Assay ID 1030, read-out: IC50/nM ALDH1A1.

`Cc1cc(-c2nnc3n2CCCCC3)c(C)n1-c1ccccc1` [Compound 72]: the “response against ALDH1A1” value in assay [1] (in words) is listed as “flat response”. Moreover, the IC50 in assay [1] (setting [5]) is > 57500 nM; in assay [2], > 57.5 µM; in assay [4] it was 0.089 µM. Further, the “∆Tm [°C] NAD+” value in assay [3] turned out to be 5.0 °C. Also, the “∆Tm [°C] NADH” value in assay [3] worked out at 10.5 °C. For the same molecule, in assay [3], the “∆Tm [°C] apo” value was 0.1 °C.
On to `Cc1cccc(-n2cnc3cc(C(=O)N4CCCCC4)ccc32)c1` [Compound 13, [1-(3-methylphenyl)-1H-benzimidazol-5-yl)(piperidin-1-yl)methanone], for which the Emax in assay [1] (ALDH1A1, footnote of Table 3, read-out: Maximal response, inhibition) stood at 70%. In assay [1] (ALDH1A1, shallow curve, read-out: approximate IC50), the IC50 was ~36000 nM. In assay [1] (setting [5]), the IC50 came out at 36000 nM. Moreover, the IC50 in assay [2] is > 57.5 µM. In assay [3], the “ΔTm in the presence of NAD+” value is 7.3±0.2 °C, the “ΔTm in the presence of NADH” value was 13.5±0.9 °C, the “∆Tm [°C] NAD+” value worked out at 7.3 °C and the “∆Tm [°C] NADH” value came out at 13.5 °C. In assay [3], the “∆Tm [°C] apo” value is -1.7 °C. Also, the IC50 in assay [4] turned out to be 0.056 µM.
